Results as given in the supplement of paper PMC10307832.

Assays:
Experiment in all cases: relative viability (nuclei count vs DMSO), 5 days (fraction); higher = more cells survive
Kobe2602 + Vorinostat = compound: C1=CC(=CC=C1NC(=S)NNC2=C(C=C(C=C2[N+](=O)[O-])C(F)(F)F)[N+](=O)[O-])F [Kobe2602] + O=C(CCCCCCC(=O)Nc1ccccc1)NO [Vorinostat] (partner 1 µM)
In short: (§1)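 Dosing by pin tool came one day after lung cancer cell lines were seeded in 1536-well plates, using either one drug or a fixed anchor-drug dose plus five library-drug doses (not always all listed) in √10 steps. After 5 days, nuclei were counted on 4× images. Relative viability is treated-well nuclei count divided by vehicle-well nuclei count, and values are medians of duplicate plates.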

[1] = compound: COc1cc2nccc(Oc3ccc(NC(=O)C4(C(=O)Nc5ccc(F)cc5)CC4)cc3)c2cc1OC [Cabozantinib] + C[C@]1(O)C[C@@H](c2nc(-c3ccc4ccc(-c5ccccc5)nc4c3)c3c(N)nccn32)C1 [Linsitinib] (partner 1 µM)
In short: as §1

Kobe2602 + Tozasertib = compound: C1=CC(=CC=C1NC(=S)NNC2=C(C=C(C=C2[N+](=O)[O-])C(F)(F)F)[N+](=O)[O-])F [Kobe2602] + Cc1cc(Nc2cc(N3CCN(C)CC3)nc(Sc3ccc(NC(=O)C4CC4)cc3)n2)n[nH]1 [Tozasertib] (partner 0.1 µM)
In short: as §1

Zosuquidar + Phenformin = compound: O[C@@H](COc1cccc2ncccc12)CN1CCN([C@@H]2c3ccccc3[C@@H]3[C@H](c4ccccc42)C3(F)F)CC1 [Zosuquidar] + N=C(N)NC(=N)NCCc1ccccc1 [Phenformin] (partner 250 µM)
In short: as §1

Cell Line | relative viability (Kobe2602 + Vorinostat; first compound 0.2 µM) | relative viability (Kobe2602 + Vorinostat; first compound 0.6325 µM) | relative viability (Kobe2602 + Vorinostat; first compound 2 µM) | relative viability (Kobe2602 + Vorinostat; first compound 6.325 µM) | relative viability (Kobe2602 + Vorinostat; first compound 20 µM) | relative viability ([1]; first compound 0.02 µM) | relative viability ([1]; first compound 0.06325 µM) | relative viability ([1]; first compound 0.2 µM) | relative viability ([1]; first compound 0.6325 µM) | relative viability ([1]; first compound 2 µM) | relative viability (Kobe2602 + Tozasertib; first compound 0.2 µM) | relative viability (Kobe2602 + Tozasertib; first compound 0.6325 µM) | relative viability (Kobe2602 + Tozasertib; first compound 2 µM) | relative viability (Kobe2602 + Tozasertib; first compound 6.325 µM) | relative viability (Kobe2602 + Tozasertib; first compound 20 µM) | relative viability (Zosuquidar + Phenformin; first compound 0.01 µM) | relative viability (Zosuquidar + Phenformin; first compound 0.03162 µM) | relative viability (Zosuquidar + Phenformin; first compound 0.1 µM) | relative viability (Zosuquidar + Phenformin; first compound 0.3162 µM) | relative viability (Zosuquidar + Phenformin; first compound 1 µM)
201T | 0.959 | 0.938 | 0.997 | 1.03 | 1.1 | 1.08 | 1.04 | 0.993 | 1.01 | 0.973 | 0.94 | 0.968 | 0.966 | 0.924 | 0.881 | 0.449 | 0.444 | 0.404 | 0.468 | 0.472
A549 | – | – | – | – | – | 0.621 | 0.641 | 0.481 | 0.534 | 0.373 | – | – | – | – | – | 0.19 | 0.176 | 0.145 | 0.255 | 0.172
A-427 | 0.889 | 0.849 | 0.906 | 0.888 | 0.867 | 1.12 | 1.1 | 1.08 | 1.1 | 1.13 | 0.233 | 0.242 | 0.198 | 0.229 | 0.218 | 0.344 | 0.324 | 0.368 | 0.401 | 0.383
ABC-1 | 1.17 | 1.54 | 0.754 | 1.02 | 1.41 | 0.719 | 0.816 | 0.81 | 0.87 | 0.754 | 0.201 | 0.181 | – | 0.216 | 0.215 | 0.253 | 0.257 | 0.252 | 0.256 | 0.266
BEN | 0.634 | 0.606 | 0.581 | 0.56 | 0.625 | 0.906 | 0.993 | 0.974 | 0.795 | 0.597 | 0.56 | 0.518 | 0.491 | 0.666 | 0.555 | 0.268 | 0.245 | 0.263 | 0.265 | 0.26
CAL-12T | 0.828 | 0.831 | 0.769 | 0.851 | 0.706 | 0.861 | 0.874 | 0.87 | 0.786 | 0.816 | 0.292 | 0.282 | 0.248 | 0.21 | 0.244 | 0.634 | 0.629 | 0.554 | 0.576 | 0.582
COR-L23 | 0.476 | 0.491 | 0.405 | 0.472 | 0.404 | 1.03 | 1.27 | 0.866 | 0.954 | 0.863 | 0.177 | 0.172 | 0.165 | 0.157 | 0.154 | 0.422 | 0.413 | 0.416 | 0.514 | 0.453
COR-L 105 | 0.786 | 0.932 | 0.647 | 0.774 | 0.705 | 0.945 | 1.04 | – | 0.937 | 0.839 | 0.364 | 0.322 | 0.371 | 0.401 | 0.366 | 0.547 | 0.404 | 0.409 | 0.478 | 0.437
Calu-6 | – | – | – | – | – | 1.06 | 0.975 | 1.01 | 0.871 | 0.881 | – | – | – | – | – | – | – | – | – | –
ChaGo-K-1 | 0.813 | 0.812 | 0.766 | 0.708 | 0.697 | – | – | – | – | – | 0.251 | 0.244 | 0.226 | 0.227 | 0.245 | 0.573 | 0.419 | 0.554 | 0.506 | 0.51
EBC-1 | – | – | – | – | – | 1.04 | 0.942 | 0.432 | 0.121 | 0.116 | – | – | – | – | – | – | – | – | – | –
EKVX | 0.678 | 0.879 | 0.652 | 0.757 | 0.672 | 0.955 | 1.11 | 0.806 | 0.989 | 1.09 | 0.391 | 0.284 | 0.362 | 0.365 | 0.278 | 0.231 | 0.252 | 0.189 | 0.243 | 0.227
EMC-BAC-2 | 0.494 | 1.01 | 0.425 | 0.593 | 0.462 | 0.842 | 0.853 | 0.775 | 0.834 | 0.797 | 0.286 | 0.297 | 0.286 | 0.333 | 0.32 | 0.523 | 0.541 | 0.517 | 0.602 | 0.537
EPLC-272H | 0.494 | 0.676 | 0.557 | 0.402 | 0.479 | 1.3 | 1.05 | 1.03 | 1.06 | 1.17 | 0.224 | 0.305 | 0.291 | 0.302 | 0.409 | 0.344 | 0.288 | 0.287 | 0.241 | 0.301
H3255 | 0.772 | 0.841 | 0.776 | 0.853 | 0.78 | 1.16 | 0.966 | – | 1.01 | 1.1 | 0.628 | 0.612 | 0.488 | 0.55 | 0.607 | 0.34 | 0.373 | 0.326 | 0.38 | 0.36
HARA | 0.529 | 0.553 | 0.422 | 0.509 | 0.767 | 1.03 | 1.06 | 0.874 | 0.994 | 0.986 | 0.117 | 0.102 | 0.122 | 0.508 | 0.123 | 0.408 | – | 0.489 | 0.41 | 0.451
